Assay results reported in patent publication US20030236212A1, “Functionalized long chain derivatives as acyl coenzyme-A mimics, compositions thereof, and methods of cholesterol management and related uses” (priority 2002, published 2003).
Like-named read-outs stand apart in the source and are kept apart here. Values belong to the compound of their own block, whether it stands above or below them.

Legend:
primary rat hepatocytes = assay: Synthesis of total lipids (14C-acetate labeling) in primary rat hepatocytes; type: cell-based; conditions: for IC50: Rattus norvegicus, Hepatocyte, read-out: IC50, inhibition of lipid synthesis in primary hepatocytes
Description: A male Sprague-Dawley rate was anesthetized by administration of sodium pentobarbitol by intraperitoneal at 80 mg/kg. In situ perfusion of the liver was performed as follows. The abdomen of the animal was opened, the portal vein canulated, and the liver perfused with WOSH solution (149 mM NaCl, 9.2 mM Na HEPES, 1.7 mM Fructose, 0.5 mM EGTA, 0.029 mM Phenol red, 10 U/ml heparin, pH 7.5) at a flow rate of 30 ml/min for 6 minutes. To digest the liver, DSC solution (6.7 mM KCl, 143 mM NaCl, 9.2 mM Na HEPES, 5 mM CaCl2-2H2O, 1.7 mM Fructose, 0.029 mM Phenol red, 0.2% BSA, 100 U/ml collagenase Type 1,160 BAEE/ml trypsin inhibitor, pH 7.5) was perfused through the liver at a flow rate of 30 ml/min for 6 minutes at a temperature of 37° C. After digestion, cells were dispersed in a solution of DMEM-(DMEM containing 2 mM GlutMax-1, 0.2% BSA, 5% FBS, 12 nM insulin, 1.2 μM hydrocortisone) to stop the digestion process. The crude cell suspension was filtered through three layers of stainless steel mesh with pore sizes of 250, 106, and 75 μm respectively. Filtered cells were centrifuged at 50×g for two minutes and the supernatant discarded. The resulting cell pellet was resuspended in DMEM and centrifuged again. This final cell pellet was resuspended in DMEM+HS solution (DMEM containing 2 mM GlutMax-1, 20 mM delta-aminolevulinic acid, 17.4 mM MEM nonessential amino acids, 20% FBS, 12 nM insulin, 1.2 μM hydrocortisone) and plated to form monolayer cultures at a density of 100×10^3 cells/cm^2 on collagen coated culture dishes.
To test the effect of an illustrative compound of the invention on synthesis rates of total lipids, the monolayer cultures were exposed to 1, 3, 10, 30, 100, or 300 μM of Compound A or 10 μM of Compound 1 in DMEM+containing 1 μCi/ml 14C-acetate, D-glucose, hepes, glutamine, leucine, alanine, lactate, pyruvate, non-essential amino acids, BSA, and gentamicine. Control cells were exposed to the same media lacking lovastatin or the test compounds. All cells were exposed to 0.1% DMSO. Metabolic labeling with ^14C-acetate continued for 4 hr at 37° C. After labeling, cells were washed twice with 1 mL of PBS followed by addition of scintallant (Microscent E) and counted on Topcount®.

obese female Zucker rats = assay: Oral daily treatment of obese female Zucker rats for 14 days (body weight, serum lipids, glucose, insulin); type: in vivo, rat; design: HDL-C / Glucose / Insulin / NEFA / BHA / TG / TC / Non HDL-C: unit not given here; conditions: for change in vivo at 10 mg/kg/day / change in vivo at 10 mg/kg / change in vivo at 30 mg/kg/day / change in vivo at 30 mg/kg / change in vivo at 100 mg/kg/day / change in vivo at 100 mg/kg: Rattus norvegicus, 336 h, oral daily, fourteen days; for change in vivo at 10 mg/kg/day / change in vivo at 30 mg/kg/day / change in vivo at 100 mg/kg/day: read-out: % wt. gain; for change in vivo at 10 mg/kg/day / change in vivo at 10 mg/kg: 10 mg/kg/day; for change in vivo at 30 mg/kg/day / change in vivo at 30 mg/kg: 30 mg/kg/day; for change in vivo at 100 mg/kg/day / change in vivo at 100 mg/kg: 100 mg/kg/day
Description: The dosing vehicle was administered to control animals in parallel experiments.
Body weight was determined daily prior to dosing. Animals were allowed free access to rodent chow and water throughout the study. Blood glucose was determined after a 6-hour fast in the afternoon without anesthesia from a tail vein. Serum was also prepared from a blood sample subsequently obtained from the orbital venous plexus (with O2/CO2 anesthesia) prior to and after one week treatment and used lipid and insulin determinations. At two weeks, blood glucose was again determined after a 6-hour fast without anesthesia from a tail vein. Soon thereafter, animals were sacrificed by CO2 inhalation in the afternoon and cardiac blood serum was collected and assessed for various lipids and insulin.

[1] = obese female Zucker rats, oral gavage daily 14 days, 5 mg/kg
[2] = obese female Zucker rats, oral, 14 days, 100 mg/kg/day (Table 1)
[3] = obese female Zucker rats, read-out: BHA, Percent Change from Pre-treatment
[4] = obese female Zucker rats, read-out: Glucose, Percent Change from Pre-treatment
[5] = obese female Zucker rats, read-out: HDL-C, Percent Change from Pre-treatment
[6] = obese female Zucker rats, read-out: Insulin, Percent Change from Pre-treatment
[7] = obese female Zucker rats, read-out: NEFA, Percent Change from Pre-treatment
[8] = obese female Zucker rats, read-out: Non HDL-C, Percent Change from Pre-treatment
[9] = obese female Zucker rats, read-out: TC, Percent Change from Pre-treatment
[10] = obese female Zucker rats, read-out: TG, Percent Change from Pre-treatment

Compound: CC(C)(CCCCOCCCCC(C)(C)COP(=O)(O)O)COP(=O)(O)O
IC50 (primary rat hepatocytes): 43 µM

Compound: CC(C)(CCCCC(=O)CCCCC(C)(C)COP(=O)(O)O)COP(=O)(O)O
IC50 (primary rat hepatocytes): 16 µM

Compound: CC(C)(CCCCCOCCCCCC(C)(C)COP(=O)(O)O)COP(=O)(O)O
IC50 (primary rat hepatocytes): 28 µM

Compound: CC(C)(CCCCCC(=O)CCCCCC(C)(C)COP(=O)(O)O)COP(=O)(O)O
IC50 (primary rat hepatocytes): 35 µM

Compound: CC(C)(CO)CCCCOCCCCC(C)(C)CO [Compound 1, bis(6-Hydroxy-5,5-dimethylhexyl)ether, reference compound]
blood glucose levels (obese female Zucker rats; fasted obese female Zucker rats, oral gavage daily 14 days, 5 mg/kg): reduction
serum insulin relative to pretreatment (obese female Zucker rats; fasted obese female Zucker rats, two weeks of treatment, 5 mg/kg): increased
liver to body weight (obese female Zucker rats; [1]): increased
serum total cholesterol (obese female Zucker rats; [1]): only modestly elevated
weight gain, percent of initial weight after two weeks (obese female Zucker rats; [1]): 1.5%
BHA (obese female Zucker rats; [2]): 1.6 ± 0.3
Glucose (obese female Zucker rats; [2]): −25.3 ± 7.2
HDL-C (obese female Zucker rats; [2]): 113.9 ± 26.4
Insulin (obese female Zucker rats; [2]): 42.1 ± 23
NEFA (obese female Zucker rats; [2]): 0.056 ± 0.002
Non HDL-C (obese female Zucker rats; [2]): −26.9 ± 9.3
TC (obese female Zucker rats; [2]): −82.5 ± 3.6
TG (obese female Zucker rats; [2]): 468.8 ± 139.7
reduction of rates of total lipid synthesis (primary rat hepatocytes; rat hepatocyte cells, 10 μM, 14C-acetate 4 hr, vs vehicle control): at least 65%

melting point: 191 to 193 °C
Compound: CC(C)(CCCCC(=O)CCCCC(C)(C)COP(=O)(O)O)COP(=O)(O)O.N.N [Compound D, Phosphoric Acid mono-(2,2,12,12-tetramethyl-7-oxo-13-phosphonooxytridecyl) ester, diammonium salt]
change in vivo at 10 mg/kg/day (obese female Zucker rats; obese female Zucker rats): 12%
change in vivo at 10 mg/kg (obese female Zucker rats; [3]): 123%
change in vivo at 10 mg/kg (obese female Zucker rats; [4]): -5%
change in vivo at 10 mg/kg (obese female Zucker rats; [5]): 5%
change in vivo at 10 mg/kg (obese female Zucker rats; [6]): 4%
change in vivo at 10 mg/kg (obese female Zucker rats; [7]): -13%
change in vivo at 10 mg/kg (obese female Zucker rats; [8]): 25%
change in vivo at 10 mg/kg (obese female Zucker rats; [9]): 8%
change in vivo at 10 mg/kg (obese female Zucker rats; [10]): 11%
change in vivo at 30 mg/kg/day (obese female Zucker rats; obese female Zucker rats): 9%
change in vivo at 30 mg/kg (obese female Zucker rats; [3]): 271%
change in vivo at 30 mg/kg (obese female Zucker rats; [4]): -4%
change in vivo at 30 mg/kg (obese female Zucker rats; [5]): 28%
change in vivo at 30 mg/kg (obese female Zucker rats; [6]): 2%
change in vivo at 30 mg/kg (obese female Zucker rats; [7]): -25%
change in vivo at 30 mg/kg (obese female Zucker rats; [8]): 22%
change in vivo at 30 mg/kg (obese female Zucker rats; [9]): 21%
change in vivo at 30 mg/kg (obese female Zucker rats; [10]): -12%
change in vivo at 100 mg/kg/day (obese female Zucker rats; obese female Zucker rats): 8%
change in vivo at 100 mg/kg (obese female Zucker rats; [3]): 814%
change in vivo at 100 mg/kg (obese female Zucker rats; [4]): -3%
change in vivo at 100 mg/kg (obese female Zucker rats; [5]): 57%
change in vivo at 100 mg/kg (obese female Zucker rats; [6]): 14%
change in vivo at 100 mg/kg (obese female Zucker rats; [7]): -22%
change in vivo at 100 mg/kg (obese female Zucker rats; [8]): 71%
change in vivo at 100 mg/kg (obese female Zucker rats; [9]): 55%
change in vivo at 100 mg/kg (obese female Zucker rats; [10]): -1%

melting point: 187 to 189 °C
Compound: CC(C)(CCCCCC(=O)CCCCCC(C)(C)COP(=O)(O)O)COP(=O)(O)O.N.N [Compound E, Phosphoric Acid mono-(2,2,14,14-tetramethyl-8-oxo-15-phosphonooxy-pentadecyl) Ester, Diammonium Salt]
change in vivo at 10 mg/kg/day (obese female Zucker rats; obese female Zucker rats): 11%
change in vivo at 10 mg/kg (obese female Zucker rats; [3]): 140%
change in vivo at 10 mg/kg (obese female Zucker rats; [4]): -6%
change in vivo at 10 mg/kg (obese female Zucker rats; [5]): 129%
change in vivo at 10 mg/kg (obese female Zucker rats; [6]): 25%
change in vivo at 10 mg/kg (obese female Zucker rats; [7]): -5%
change in vivo at 10 mg/kg (obese female Zucker rats; [8]): 6%
change in vivo at 10 mg/kg (obese female Zucker rats; [9]): 3%
change in vivo at 10 mg/kg (obese female Zucker rats; [10]): 39%
change in vivo at 30 mg/kg/day (obese female Zucker rats; obese female Zucker rats): 10%
change in vivo at 30 mg/kg (obese female Zucker rats; [3]): 73%
change in vivo at 30 mg/kg (obese female Zucker rats; [4]): -1%
change in vivo at 30 mg/kg (obese female Zucker rats; [5]): 174%
change in vivo at 30 mg/kg (obese female Zucker rats; [6]): -12%
change in vivo at 30 mg/kg (obese female Zucker rats; [7]): -28%
change in vivo at 30 mg/kg (obese female Zucker rats; [8]): 51%
change in vivo at 30 mg/kg (obese female Zucker rats; [9]): 126%
change in vivo at 30 mg/kg (obese female Zucker rats; [10]): -2%
change in vivo at 100 mg/kg/day (obese female Zucker rats; obese female Zucker rats): 4%
change in vivo at 100 mg/kg (obese female Zucker rats; [3]): 134%
change in vivo at 100 mg/kg (obese female Zucker rats; [4]): -4%
change in vivo at 100 mg/kg (obese female Zucker rats; [5]): 246%
change in vivo at 100 mg/kg (obese female Zucker rats; [6]): -15%
change in vivo at 100 mg/kg (obese female Zucker rats; [7]): -40%
change in vivo at 100 mg/kg (obese female Zucker rats; [8]): 20%
change in vivo at 100 mg/kg (obese female Zucker rats; [9]): 161%
change in vivo at 100 mg/kg (obese female Zucker rats; [10]): -51%

melting point: 178 to 180 °C
Compound: CC(=O)C(CCCCC(C)(C)CO)CCCCC(C)(C)CO [Compound G, 9-Hydroxy-3-(6-hydroxy-5,5-dimethylhexyl)-8,8-dimethylnonan-2-one]

melting point: 73 °C
Compound: CC(C)(CO)CCCCN(O)CCCCC(C)(C)CO [Compound I]

Compound: CC(=O)C(CCCCC(C)(C)CO)CCCCC(C)(C)CO [drawing 124]
IC50 (primary rat hepatocytes): 62 µM

Compound: CC(C)(CO)CCCCN(O)CCCCC(C)(C)CO [drawing 125]
IC50 (primary rat hepatocytes): 64 µM

Compound: CC(C)(CO)CCCCOC(=O)CCCCC(C)(C)CO [drawing 126]
IC50 (primary rat hepatocytes): 14 µM
